Measured values published in patent publication US10894807B2 (Siemens Medical Solutions USA, Inc., priority 2011, dated 2021).
Read-outs that look alike come from different tables or passages of the source.

Target: human PSMA (Homo sapiens (Human), UniProt Q04609)
Assay: Enzymatic assay for in vitro evaluation of PSMA inhibitors (fluorescent assay of PSMA activity, NAAG substrate, OPA detection of glutamate)
Format: biochemical

Sequence of human PSMA (Q04609 whole entry): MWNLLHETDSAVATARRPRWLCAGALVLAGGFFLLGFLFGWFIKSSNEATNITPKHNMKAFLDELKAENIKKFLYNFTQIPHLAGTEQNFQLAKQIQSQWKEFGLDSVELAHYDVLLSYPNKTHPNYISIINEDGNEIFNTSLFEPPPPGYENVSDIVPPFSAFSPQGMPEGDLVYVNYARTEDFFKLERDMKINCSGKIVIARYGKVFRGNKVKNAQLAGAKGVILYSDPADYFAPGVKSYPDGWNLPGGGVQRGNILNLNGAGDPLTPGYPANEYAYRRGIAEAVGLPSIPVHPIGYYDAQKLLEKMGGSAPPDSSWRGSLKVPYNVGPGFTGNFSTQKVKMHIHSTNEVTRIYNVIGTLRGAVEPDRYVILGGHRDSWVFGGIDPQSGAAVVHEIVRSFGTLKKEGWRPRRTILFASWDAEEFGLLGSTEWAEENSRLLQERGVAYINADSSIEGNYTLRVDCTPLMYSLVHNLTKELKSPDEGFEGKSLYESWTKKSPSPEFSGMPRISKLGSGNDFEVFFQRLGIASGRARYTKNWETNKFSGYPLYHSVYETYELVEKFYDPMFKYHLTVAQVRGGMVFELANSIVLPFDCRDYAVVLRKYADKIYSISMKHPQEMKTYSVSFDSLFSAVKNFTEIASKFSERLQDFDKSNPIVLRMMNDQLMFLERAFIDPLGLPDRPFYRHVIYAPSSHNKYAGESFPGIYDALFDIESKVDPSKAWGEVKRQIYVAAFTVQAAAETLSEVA

| Ki [nM] | PSMA Blkg % (10 μM) (compound at 10 μM) [%] | SMILES | other results |
| --- | --- | --- | --- |
| > 531 | 79 | O=C(O)CC[C@@H](C(=O)O)N(O)C(=O)N[C@@H](CCCCNC(=O)c1ccc(F)cc1)C(=O)O [P162, (S)-2-(3-((S)-1-Carboxy-5-(4-fluorobenzamido)pentyl)-1-hydroxyureido)pentanedioic Acid] |  |
|  | 0 | CN(C(=O)[C@H](CC(=O)O)NC(=O)c1ccc(F)cc1)[C@@H](CCC(=O)O)C(=O)O [P163, (S)-2-((S)-3-Carboxy-2-(4-fluorobenzamido)-N-methylpropanamido)pentanedioic Acid] |  |
|  | 98 | C#Cc1ccc(C(=O)NCCCC[C@@H](C(=O)O)N(O)C(=O)N[C@@H](CCC(=O)O)C(=O)O)cc1 [P168, (S)-2-(3-((S)-1-Carboxy-5-(4-ethynylbenzamido)pentyl)-3-hydroxyureido)pentanedioic Acid] |  |
| 156 | 79 | O=C(O)CC[C@H](NC(=O)N(O)[C@@H](CCCCNC(=O)c1ccc(F)cc1)C(=O)O)C(=O)O [P169, (S)-2-(3-((S)-1-Carboxy-5-(4-fluorobenzamido)pentyl)-3-hydroxyureido)pentanedioic Acid] |  |
|  | 58 | CN(C(=O)[C@H](CC(=O)O)NC(=O)CCc1ccc(-n2cc(CCCF)nn2)cc1)[C@@H](CCC(=O)O)C(=O)O [P170, (S)-2-((S)-3-Carboxy-2-(3-(4-(4-(3-fluoropropyl)-1H-1,2,3-triazol-1-yl)phenyl)propanamido)-N-methylpropanamido)pentanedioic Acid] |  |
|  | 1 | CN(C(=O)[C@H](CC(=O)O)NC(=O)COCCNC(=O)c1ccc(F)cc1)[C@@H](CCC(=O)O)C(=O)O [P174, (S)-2-((S)-3-Carboxy-2-(2-(2-(4-fluorobenzamido)ethoxy)acetamido)-N-methylpropanamido)pentanedioic Acid] |  |
|  | 18 | CN(C(=O)N[C@@H](CCC(=O)O)C(=O)O)[C@@H](CCCCNC(=O)NCc1ccccc1)C(=O)O [P175, (9S,13S)-10-Methyl-3,11-dioxo-1-phenyl-2,4,10,12-tetraazapentadecane-9,13,15-tricarboxylic Acid] |  |
|  | 77 | CN(C(=O)N[C@@H](CCC(=O)O)C(=O)O)[C@@H](CCCCNC(=O)OCc1ccc([N+](=O)[O-])cc1)C(=O)O [P176, (9S,13S)-10-Methyl-1-(4-nitrophenyl)-3,11-dioxo-2-oxa-4,10,12-triazapentadecane-9,13,15-tricarboxylic Acid] |  |
|  | 38 | Cc1ccc(S(=O)(=O)NCCCC[C@@H](C(=O)O)N(C)C(=O)N[C@@H](CCC(=O)O)C(=O)O)cc1 [P177, (S)-2-(3-((S)-1-Carboxy-5-(4-methylphenylsulfonamido)pentyl)-3-methylureido)pentanedioic Acid] |  |
|  | 1 | O=C(O)CC[C@H](NS(=O)(=O)NC(=O)OCc1ccccc1)C(=O)O [P178, (S)-2-((N-((Benzyloxy)carbonyl)sulfamoyl)amino)pentanedioic Acid] |  |
|  | 4 | O=C(O)CC[C@@H](C(=O)O)N(O)S(=O)(=O)NC(=O)OCc1ccccc1 [P179, (S)-2-((N-((Benzyloxy)carbonyl)sulfamoyl)(hydroxy)amino)pentanedioic Acid] |  |
|  | 5 | NS(=O)(=O)N(OC(=O)OCc1ccccc1)[C@@H](CCC(=O)O)C(=O)O [P180] |  |
|  | 39 | [N-]=[N+]=Nc1ccc(CCCC(=O)NS(=O)(=O)N[C@@H](CCC(=O)O)C(=O)O)cc1 [P181, (S)-2-((N-(4-(4-Azidophenyl)butanoyl)sulfamoyl)amino)pentanedioic Acid] |  |
|  | 10 | CN(C(=O)N[C@@H](CCC(=O)O)C(=O)O)[C@@H](CCCCNCc1ccc(F)cc1)C(=O)O [P184, (S)-2-(3-((S)-1-Carboxy-5-(4-fluorobenzylamino)pentyl)-3-methylureido)pentanedioic Acid] |  |
| > 3000 |  | O=C(O)CCC(CP(=O)(O)NCCc1ccccc1)C(=O)O (centres unmarked) [P197, 2-((Hydroxy(phenethylamino)phosphoryl)methyl)pentanedioic Acid] | PSMA Blkg % (10 μM): 22% |

The remaining lines, values behind:

| SMILES | Ki [nM] | PSMA Blkg % (10 μM) (compound at 10 μM) [%] | other results |
| --- | --- | --- | --- |
| O=C(O)CC[C@H](NC(=O)N(O)[C@@H](CCCCNC(=O)c1ccc(NC(=O)c2ccc(F)nc2)cc1)C(=O)O)C(=O)O [P164, (S)-2-(3-((S)-1-Carboxy-5-(4-(6-fluoronicotinamido)benzamido)pentyl)-3-hydroxyureido)pentanedioic Acid] | > 407 | 80 |  |
| O=C(O)/C=C/C(=O)N[C@@H](CCC(=O)O)C(=O)O [P165] |  | 11 |  |
| O=C(O)CC[C@H](NC(=O)N(O)[C@@H](CCCCNC(=O)Cn1cc(CCCF)nn1)C(=O)O)C(=O)O [P166, (S)-2-(3-((S)-1-Carboxy-5-(2-(4-(3-fluoropropyl)-1H-1,2,3-triazol-1-yl)acetamido)pentyl)-3-hydroxyureido)pentanedioic Acid] | > 375 | 87 |  |
| O=C(O)CC[C@H](NC(=O)N(O)[C@@H](CCCCNC(=O)c1ccc(OCCF)cc1)C(=O)O)C(=O)O [P167, (S)-2-(3-((S)-1-Carboxy-5-(4-(2-fluoroethoxy)benzamido)pentyl)-3-hydroxyureido)pentanedioic Acid] | > 657 | 93 |  |
| O=C(O)CC[C@H](NC(=O)N(O)C(CCCCNC(=O)c1ccc(NC(=O)c2ccc(F)cc2)cc1)C(=O)O)C(=O)O (some centres unmarked) [P171] |  | 87 |  |
| CN(C(=O)N[C@@H](CCC(=O)O)C(=O)O)[C@@H](CCCCn1cc(COCCOCCNc2ccc([N+](=O)[O-])cc2[N+](=O)[O-])nn1)C(=O)O [P172, (S)-2-(3-((S)-1-Carboxy-5-(4-((2-(2-(2,4-dinitrophenylamino)ethoxy)ethoxy)methyl)-1H-1,2,3-triazol-1-yl)pentyl)-3-methylureido)pentanedioic Acid] | 313 |  |  |
| CN(C(=O)N[C@@H](CCC(=O)O)C(=O)O)[C@@H](CCCCn1cc(CCCF)nn1)C(=O)O [P173, (S)-2-(3-((S)-1-Carboxy-5-(4-(3-fluoropropyl)-1H-1,2,3-triazol-1-yl)pentyl)-3-methylureido)pentanedioic Acid] |  | 31 |  |
| O=C(O)CC[C@H](NC(=O)N(O)[C@@H](CCCCNC(=O)c1ccc(F)nc1)C(=O)O)C(=O)O [P182, (S)-2-(3-((S)-1-Carboxy-5-(6-fluoronicotinamido)pentyl)-3-hydroxyureido)pentanedioic Acid] |  | 92 |  |
| [N-]=[N+]=NCCCCC(=O)NS(=O)(=O)N[C@@H](CCC(=O)O)C(=O)O [P183, (S)-2-((N-(5-Azidopentanoyl)sulfamoyl)amino)pentanedioic Acid] |  | 36 |  |
| CC(=O)Oc1ccc2c(c1)Oc1cc(OC(C)=O)ccc1C21OC(=O)c2ccc(C(=O)NCCCC[C@H](NC(=O)N[C@@H](CCC(=O)O)C(=O)O)C(=O)O)cc21 [P185, (S)-2-(3-((S)-1-Carboxy-5-(3′,6′-diacetoxy-3-oxo-3H-spiro[isobenzofuran-1,9′-xanthen]-6-ylcarboxamido)pentyl)ureido)pentanedioic Acid] |  |  | PSMA Blkg % (10 μM): 99% |
| CC(F)C(=O)Nc1ccc(C(=O)NCCCC[C@H](NC(=O)N(O)[C@@H](CCC(=O)O)C(=O)O)C(=O)O)cc1 (stereo partly drawn) [P186, (S)-2-(3-((S)-1-Carboxy-5-(4-(2-fluoropropanamido)benzamido)pentyl)-1-hydroxyureido)pentanedioic Acid] |  | 85 |  |
| O=C(O)CC[C@H](NC(=O)N[C@@H](CCCCn1cc(CCCF)nn1)C(=O)O)C(=O)O [P188, (S)-2-(3-((S)-1-Carboxy-5-(4-(3-fluoropropyl)-1H-1,2,3-triazol-1-yl)pentyl)ureido)-pentanedioic Acid] | 6.6 | 99 |  |
| O=C(O)C(Cn1cc(CCCF)nn1)CP(=O)(O)O (centres unmarked) [P189, 3-(4-(3-Fluoropropyl)-1H-1,2,3-triazol-1-yl)-2-(phosphonomethyl)propanoic Acid] | > 688 |  |  |
| O=C(O)C(Cn1ccnn1)CP(=O)(O)O (centres unmarked) [P190, 2-((1H-1,2,3-Triazol-1-yl)methyl)-3-phosphonopropanoic Acid] | 188 |  |  |
| CN(C(=O)N[C@@H](CCC(=O)O)C(=O)O)[C@@H](Cc1ccc(NC(=O)CCCn2cc(CCCF)nn2)cc1)C(=O)O [P191, (S)-2-(3-((S)-1-Carboxy-2-(4-(4-(4-(3-fluoropropyl)-1H-1,2,3-triazol-1-yl)-butanamido)phenyl)-ethyl)-3-methylureido)pentanedioic Acid] |  |  | PSMA Blkg % (10 μM): 78% |
| O=C(O)Cn1cc(C[C@H](NC(=O)N[C@@H](CCCCNC(=O)OCc2ccccc2)C(=O)O)C(=O)O)nn1 [P192, (9S,13S)-9-Carboxy-13-((1-(carboxymethyl)-1H-1,2,3-triazol-4-yl)methyl)-3,11-dioxo-1-phenyl-2-oxa-4,10,12-triazatetradecan-14-oic Acid] |  |  | PSMA Blkg % (10 μM): 29% |
| O=C(O)CCC(CP(=O)(O)OCCOCCOCCOCCn1cc(CCCF)nn1)C(=O)O (centres unmarked) [P193, 2-(((2-(2-(2-(2-(4-(3-Fluoropropyl)-1H-1,2,3-triazol-1-yl)ethoxy)ethoxy)ethoxy)ethoxy)(hydroxy)phosphoryl)methyl)pentanedioic Acid] |  |  | PSMA Blkg % (10 μM): 0% |
| O=C(O)CC[C@H](NC(=O)N[C@@H](CCCCNC(=O)[C@H]1O[C@@H](CNC(=O)CCc2ccc(-n3cc(CCCF)nn3)cc2)[C@H](O)[C@@H](O)[C@H]1O)C(=O)O)C(=O)O [P194, (S)-2-(3-((S)-1-Carboxy-5-((2S,3R,4R,5R,6S)-6-((3-(4-(4-(3-fluoropropyl)-1H-1,2,3-triazol-1-yl)phenyl)propanamido)methyl)-3,4,5-trihydroxytetrahydro-2H-pyran-2-carboxamido)pentyl)ureido)pentanedioic Acid] | 69 |  | PSMA Blkg % (10 μM): 96% |
| O=C(O)CC[C@H](NC(=O)N[C@@H](Cc1ccc(OCCn2cc(CCCF)nn2)cc1)C(=O)O)C(=O)O [P195, (S)-2-(3-((S)-1-Carboxy-2-(4-(2-(4-(3-fluoropropyl)-1H-1,2,3-triazol-1-yl)ethoxy)phenyl)ethyl)ureido)pentanedioic Acid] | 66 |  | PSMA Blkg % (10 μM): 96% |
| CC(=O)N(CCF)CC(CP(=O)(O)O)C(=O)O.O=C(O)C(F)(F)F (centres unmarked) [P196, 3-(N-(2-Fluoroethyl)acetamido)-2-(phosphonomethyl)propanoic Acid] |  |  | PSMA Blkg % (10 μM): 27% |
